Laboratory results from patent US12275957B2, “Next generation designer liver organoids and their methods of preparation and use” (ARIZONA BOARD OF REGENTS ON BEHALF OF ARIZONA STATE …, priority 2018, dated 2025).
Where two headings read alike, the source gives them in different places.

Legend:
[1] = tested on: FXR signaling (CYP7A1, NROB2/SHP, FGF19 expression) in DesLO
Method: (§1) To further delineate the mechanism of FXR-mediated CYP7A1 repression, we tested FXR, NROB2, and FGF19 expression following GW4064 treatment.
(§2) Tissues were harvested and lysed by adding 500 μL Trizol (Life Technologies) directly to the tissue culture well and freezing at −80C. For extraction, lysate was thawed on ice, 100 μL chloroform was added, vortexed for 30 seconds, and centrifuged at 12,000 g for 15 minutes at 4° C. After centrifugation the aqueous phase was transferred to a Qiagen gDNA eliminator column and centrifuged at 10,000 g for 1 minute at 4° C. The flow-through was mixed with an equal volume of 70% EtOH and transferred to an RNEasy mini spin column. The manufacturer protocol for the RNEasy Plus Mini Kit (QIAGEN) was followed for the rest of the procedure. cDNA was synthesized using the high Capacity cDNA reverse transcription (Applied Biosystems). qRT-PCR was performed using the SYBR Green intercalating dye (ThermoFisher Scientific) and previously validated primers (IDT). Expression was normalized to 18S ribosomal RNA and relative gene expression was calculated using 2^−ΔΔCT method.

[2] = tested on: Desmin positive stellate-like cells in DesLO; assay: Fibrogenesis model: Desmin immunofluorescence and qRT-PCR; assay type: cell-based, human; details: for Desmin positive population (immunofluorescence staining): 5 ng/mL TGFB1 for 3 days
Source text: Multicellular DesLO as a Model for Fibrogenesis: Hepatic fibrosis is a maladaptive multicellular response of liver that is characterized by an excessive accumulation of extracellular matrix. It is a wound healing process, largely mediated by hepatic stellate cells (liver pericytes) which proliferate, deposit collagen, and generate scar tissue in response to injury. Since DesLOs contain a population of stellate-like cells we assessed whether this cell population respond to classical fibrotic stimuli. We induced fibrogenesis via transforming growth factor beta-1 (TGFβ1) or a combination of TGFβ1 and fetal bovine serum (FBS) supplementation to the culture medium. […] It is known that tissue culture treated polystyrene (TCTP) can increase cell stress and stellate cell proliferation.
Cells were grown on Matrigel-coated 8 mm or 12 mm diameter circular glass coverslips and fixed for 20 min in 4% paraformaldehyde (Electron Microscopy Sciences) at room temperature. Coverslips were then washed three times in 200 μl PBS droplets on Parafilm (Pechiney Plastic Packaging Company) followed by 15 min permeabilization in 100 μl of 0.2% Triton X-100 in PBS. Subsequently the coverslips were washed three times in 200 μl in washing buffer (0.05% Tween-20 in PBS) for 5 min and blocked for 20 min in 200 μl wash buffer plus 5% normal donkey serum (Jackson ImmunoResearch Laboratories). The incubation with the primary antibodies was performed for 1 h at room temperature in 30 μl of 5% normal donkey serum in PBS followed by three washes in 200 μl in PBS for 5 min each. The incubation with the secondary antibodies was performed for 1 h at room temperature in 30 μl of 5% normal donkey serum in PBS followed by three washes in 200 μl in PBS for 5 min. Finally, the coverslips were mounted on microscopy glass slides using ProLong Diamond Antifade (Life Technologies, USA), cured overnight at room temperature and then sealed with nail polish. Antibody list and concentrations are included in the supplement.

[3] = tested on: bile acid synthesis in DesLO; assay: Total bile acid assay in media; assay type: cell-based, human; details: addition of GW4064
Method: The cell supernatant was assessed at multiple dilutions to optimize detection, and the assay was performed according to the manufacturer's protocol.

[4] = tested on: FXR signaling (CYP7A1, NROB2/SHP, FGF19 expression) in FeLO; assay: qRT-PCR of bile acid synthesis / FXR pathway genes in FeLO after addition of FXR agonist; details: FeLO cultures
Method: as §1, §2

[5] = tested on: FXR signaling (CYP7A1, NROB2/SHP, FGF19 expression) in DesLO; assay: qRT-PCR of bile acid synthesis / FXR pathway genes in DesLO after addition of FXR agonist, bile acid or FGF19
Method: as §1, §2

C[C@H](CCC(=O)O)[C@H]1CC[C@H]2[C@@H]3[C@H](O)C[C@@H]4C[C@H](O)CC[C@]4(C)[C@H]3CC[C@]12C [CDCA, chenodeoxycholic acid]
CYP7A1 expression change (qRT-PCR) [1]: expected downregulation of CYP7A1

transforming growth factor beta-1 [TGFβ1]
Desmin positive population (immunofluorescence staining) ([2]; DesLO, versus vehicle control): visibly expanded
Desmin positive population (immunofluorescence staining) ([2]; DesLO, versus vehicle control, listed as TGFB1): increase in expression
Desmin levels (qRT-PCR) ([2]; DesLO, versus vehicle control): increase
response to TGFβ1 treatment (Desmin qRT-PCR) ([2]; both FeLO and DesLO): responded modestly

CC(C)c1onc(-c2c(Cl)cccc2Cl)c1COc1ccc(/C=C/c2cccc(C(=O)O)c2)c(Cl)c1 [GW4064]
total bile acid in media [3]: repression of bile acid synthesis
upregulation of SHP and FGF19 / CYP7A1 repression ([4]; GW4064 treatment): could not be captured
CYP7A1 repression (real-time qPCR) ([4]; addition of GW4064): not repressed
upregulation of FGF19 ([5]; GW4064 treatment): > 40 folds
upregulation of SHP (NROB2) ([5]; GW4064 treatment): > 40 folds
CYP7A1 repression (real-time qPCR) ([5]; addition of GW4064): 4 fold

fibroblast growth factor 19 [FGF19]
CYP7A1 expression change (qRT-PCR) ([5]; addition to the media): expected downregulation of CYP7A1
